US12410163B2, “Compounds as GLP-IR agonists” (Terns Pharmaceuticals, Inc., priority 2022, dated 2025)

Test system: human hepatocytes
Test: Metabolic stability in hepatocytes
Assay type: in vitro ADME
Conditions: 1 μM, 1×10^6 cells/mL, 0-240 min
In short: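 Cryopreserved human hepatocytes at 1×10^6 cells/mL in DMEM were exposed to 1 μM compound (0.1% DMSO) for 0–240 min at 37 °C, 5% CO2. Parent loss quantified by LC-MS/MS; t1/2 = 0.693/k and CLint = k/cell density from semi-log % remaining versus time.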

hHep t1/2: > 8 h
SMILES: N#Cc1ccc(COc2cccc(N3CCN(Cc4nc5ccc(C(=O)O)cc5n4Cc4cncs4)[C@H]4C[C@H]43)n2)c(F)c1 (single isomer, unassigned) [Compound 2, 2-((5-(6-((4-Cyano-2-fluorobenzyl)oxy)pyridin-2-yl)-2,5-diazabicyclo[4.1.0]heptan-2-yl)methyl)-1-(thiazol-5-ylmethyl)-1H-benzo[d]imidazole-6-carboxylic Acid]
